Experimental data as given in PMC9774648, “Synthesis, Physicochemical Properties and Molecular Docking of New Benzothiazole Derivatives as Antimicrobial Agents Targeting DHPS Enzyme” (Antibiotics, 2022).
Converted amounts (≈) assume the structure as drawn. Read-outs that look alike come from different tables or passages of the source.

Assays:
K. pneumonia = test: MIC, twofold serial dilution, K. pneumonia; type: cell-based; settings: Klebsiella pneumoniae, read-out: The Minimum Inhibitory Concentration (MIC), K. pneumonia
S. aureus = test: MIC, twofold serial dilution, S. aureus; type: cell-based; settings: Staphylococcus aureus; twofold serial dilution in broth, 37 °C 16–20 h; read-out: The Minimum Inhibitory Concentration (MIC), S. aureus
Procedure: The new synthetic compounds, 6a–c, 12a–c, 14a–c, 16a–c and 19a–e, were tested in vitro to evaluate antibacterial activities against Gram-negative and Gram-positive bacteria, such as E. coli (ATCC: 3008), K. pneumonia (ATCC: 4415) and P. aeruginosa (ATCC: 27853), as an example for Gram-negative bacteria, as well as S. aureus (ATCC: 6538) and S. mutans (ATCC: 25175) for Gram-positive bacteria. The antifungal activities were evaluated also for the novel compounds in vitro against C. albicans (ATCC: 10231). The antibacterial and antifungal activities were determined by the agar-diffusion method using gentamicin, ampicillin and sulfadiazine, example of sulfa drug, as standard drugs against Gram-negative and Gram-positive, while nystatin was used as standard drug against the fungal strain. Table 1 summarizes the results for all tested compounds as the average diameter of inhibition zones of microbial growth around the discs in mm ± SD.
For each strain, three to five isolated colonies were selected from the fresh agar plate and were transferred into a tube containing 3–4 mL of sterile broth medium. The bacterial suspension was mixed well and incubated at 35–37 °C for 2–6 h. The turbidity of the bacterial suspension should be equal to or greater than the turbidity of a McFarland Standard 0.5. After that, 1 mg of the tested compound (antimicrobial agent) was dissolved in 1 mL DMSO and two-fold serial dilution was done using broth medium. A fixed volume of the prepared bacterial inoculum was added to each tube and incubated for at 37 °C 16–20 h. The MIC is defined as the lowest concentration of the antimicrobial agent that inhibits visible growth of the tested isolate as observed with the unaided eye.

S. aureus (ATCC: 6538) = test: Agar well diffusion, inhibition zone, S. aureus; type: cell-based; settings: Staphylococcus aureus; agar well diffusion, 15 mg/mL, 100 μL per well, 37 °C 24 h, mean ± SD, triplicate; read-out: Diameter of the Inhibition Zone, S. aureus
S. mutans = test: MIC, twofold serial dilution, S. mutans; type: cell-based; settings: Streptococcus mutans; twofold serial dilution in broth, 37 °C 16–20 h; read-out: The Minimum Inhibitory Concentration (MIC), S. mutans
[1] = target: DHPS enzyme (dihydropteroate synthase) (Bacillus anthracis, UniProt Q81VW8); test: biochemical; settings: for inhibition at 0.1 µg/mL / inhibition at 1 µg/mL / inhibition at 10 µg/mL / inhibition at 100 µg/mL: read-out: Inhibition % against DHPS enzyme
Chain of DHPS enzyme (dihydropteroate synthase) (Q81VW8 1-280): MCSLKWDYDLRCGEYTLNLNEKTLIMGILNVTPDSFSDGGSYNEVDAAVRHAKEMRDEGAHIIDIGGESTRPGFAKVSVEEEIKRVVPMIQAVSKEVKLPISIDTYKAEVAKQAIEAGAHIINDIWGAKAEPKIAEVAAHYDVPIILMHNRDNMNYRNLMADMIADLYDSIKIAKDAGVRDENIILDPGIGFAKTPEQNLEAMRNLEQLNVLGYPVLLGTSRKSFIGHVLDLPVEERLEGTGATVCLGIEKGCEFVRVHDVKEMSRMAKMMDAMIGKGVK

P. aeruginosa = test: MIC, twofold serial dilution, P. aeruginosa; type: cell-based; settings: Pseudomonas aeruginosa, read-out: The Minimum Inhibitory Concentration (MIC), P. aeruginosa
S. mutans (ATCC: 25175) = test: Agar well diffusion, inhibition zone, S. mutans; type: cell-based; settings: Streptococcus mutans; agar well diffusion, 15 mg/mL, 100 μL per well, 37 °C 24 h, mean ± SD, triplicate; read-out: Diameter of the Inhibition Zone, S. mutans
E. coli (ATCC: 3008) = test: Agar well diffusion, inhibition zone, E. coli; type: cell-based; settings: for zone of inhibition at 15000 µg/mL: Escherichia coli, read-out: Diameter of the Inhibition Zone, E. coli
[2] = system: P. aeruginosa (ATCC: 27853); test: Agar well diffusion, inhibition zone, P. aeruginosa; type: cell-based; settings: for zone of inhibition at 15000 µg/mL: Pseudomonas aeruginosa, read-out: Diameter of the Inhibition Zone, P. aeruginosa
[3] = system: K. pneumonia (ATCC: 4415); test: Agar well diffusion, inhibition zone, K. pneumonia; type: cell-based; settings: for zone of inhibition at 15000 µg/mL: Klebsiella pneumoniae, read-out: Diameter of the Inhibition Zone, K. pneumonia
[4] = system: C. albicans (ATCC: 10231); test: Agar well diffusion, inhibition zone, C. albicans; type: cell-based; settings: Candida albicans, 15 mg/mL, 100 μL per well, mean ± SD, triplicate, read-out: Diameter of the Inhibition Zone, C. albicans
[5] = twofold serial dilution in broth, 37 °C 16–20 h
[6] = agar well diffusion, 15 mg/mL, 100 μL per well, 37 °C 24 h, mean ± SD, triplicate

Cc1ccc(S(=O)(=O)NNC(=O)/C(=C/c2ccc(Cl)cc2)c2nc3ccccc3s2)cc1 [Compound 14b]
MIC (K. pneumonia; [5]): 1030 µM (≈ 500 µg/mL) | MIC (S. aureus): 129 µM (≈ 62.4 µg/mL) | zone of inhibition at 15000 µg/mL (S. aureus (ATCC: 6538)): 31.6 ± 0.6 mm | MIC (S. mutans): 258 µM (≈ 125 µg/mL) | IC50 [1]: 34.6 µM | inhibition at 0.1 µg/mL ([1]; 0.1 μg/mL): 12% | inhibition at 1 µg/mL ([1]; 1 μg/mL): 24% | inhibition at 10 µg/mL ([1]; 10 μg/mL): 47% | inhibition at 100 µg/mL ([1]; 100 μg/mL): 65% | MIC (P. aeruginosa; [5]): 517 µM (≈ 250 µg/mL) | melting point: 188 to 189 °C | zone of inhibition at 15000 µg/mL (S. mutans (ATCC: 25175)): 21.6 ± 0.6 mm | Diameter of the Inhibition Zone, E. coli (E. coli (ATCC: 3008); [6]): - | zone of inhibition at 15000 µg/mL [2, 6]: 24.3 ± 0.6 mm | zone of inhibition at 15000 µg/mL [3, 6]: 15.6 ± 0.6 mm

O=c1[nH][nH]c(-c2ccc(F)cc2)c1-c1nc2ccccc2s1 [Compound 16a, 4-(Benzo[d]thiazole-2-yl)-5-(4-florophenyl)-1H-pyrazol-3(2H)-one]
MIC (K. pneumonia; [5]): 803 µM (≈ 250 µg/mL) | MIC (S. aureus): 1610 µM (≈ 500 µg/mL) | zone of inhibition at 15000 µg/mL (S. aureus (ATCC: 6538)): 15.3 ± 0.5 mm | MIC (S. mutans): 200 µM (≈ 62.3 µg/mL) | IC50 [1]: 35.9 µM | inhibition at 0.1 µg/mL ([1]; 0.1 μg/mL): 12% | inhibition at 1 µg/mL ([1]; 1 μg/mL): 26% | inhibition at 10 µg/mL ([1]; 10 μg/mL): 49% | inhibition at 100 µg/mL ([1]; 100 μg/mL): 70% | MIC (P. aeruginosa; [5]): 1610 µM (≈ 500 µg/mL) | melting point: 238 to 240 °C | zone of inhibition at 15000 µg/mL [4]: 12.3 ± 0.5 mm | zone of inhibition at 15000 µg/mL (S. mutans (ATCC: 25175)): 25 ± 0.6 mm | Diameter of the Inhibition Zone, E. coli (E. coli (ATCC: 3008); [6]): - | zone of inhibition at 15000 µg/mL [2, 6]: 16.6 ± 0.5 mm | zone of inhibition at 15000 µg/mL [3, 6]: 17.3 ± 0.6 mm

O=c1[nH][nH]c(-c2ccc(Cl)cc2)c1-c1nc2ccccc2s1 [Compound 16b, 4-(Benzo[d]thiazole-2-yl)-5-(4-chlorophenyl)-1H-pyrazol-3(2H)-one]
MIC (S. aureus): 191 µM (≈ 62.6 µg/mL) | zone of inhibition at 15000 µg/mL (S. aureus (ATCC: 6538)): 35.3 ± 0.6 mm | MIC (S. mutans): 191 µM (≈ 62.6 µg/mL) | IC50 [1]: 23.9 µM | inhibition at 0.1 µg/mL ([1]; 0.1 μg/mL): 16% | inhibition at 1 µg/mL ([1]; 1 μg/mL): 31% | inhibition at 10 µg/mL ([1]; 10 μg/mL): 52% | inhibition at 100 µg/mL ([1]; 100 μg/mL): 72% | MIC (P. aeruginosa; [5]): 762 µM (≈ 250 µg/mL) | melting point: 236 to 237.5 °C | zone of inhibition at 15000 µg/mL [4]: 10.6 ± 0.5 mm | zone of inhibition at 15000 µg/mL (S. mutans (ATCC: 25175)): 24.6 ± 0.6 mm | Diameter of the Inhibition Zone, E. coli (E. coli (ATCC: 3008); [6]): - | zone of inhibition at 15000 µg/mL [2, 6]: 25.6 ± 0.6 mm | Diameter of the Inhibition Zone, K. pneumonia [3, 6]: -

Cc1ccc(-c2[nH][nH]c(=O)c2-c2nc3ccccc3s2)cc1 [Compound 16c, 4-(Benzo[d]thiazole-2-yl)-5-(p-tolyl)-1H-pyrazol-3(2H)-one]
MIC (K. pneumonia; [5]): 813 µM (≈ 250 µg/mL) | MIC (S. aureus): 25 µM (≈ 7.68 µg/mL) | zone of inhibition at 15000 µg/mL (S. aureus (ATCC: 6538)): 40.3 ± 0.6 mm | MIC (S. mutans): 203 µM (≈ 62.4 µg/mL) | IC50 [1]: 35.9 µM | inhibition at 0.1 µg/mL ([1]; 0.1 μg/mL): 13% | inhibition at 1 µg/mL ([1]; 1 μg/mL): 31% | inhibition at 10 µg/mL ([1]; 10 μg/mL): 48% | inhibition at 100 µg/mL ([1]; 100 μg/mL): 68% | melting point: 239 to 241 °C | zone of inhibition at 15000 µg/mL (S. mutans (ATCC: 25175)): 31.3 ± 0.6 mm | Diameter of the Inhibition Zone, E. coli (E. coli (ATCC: 3008); [6]): - | Diameter of the Inhibition Zone, P. aeruginosa [2, 6]: - | zone of inhibition at 15000 µg/mL [3, 6]: 24.3 ± 0.6 mm

CNC(C)C1CCC(N)C(OC2C(N)CC(N)C(OC3OCC(C)(O)C(NC)C3O)C2O)O1 (stereo not shown) [Gentamicin, reference compound]
MIC (K. pneumonia): 65 µM (≈ 31 µg/mL) | MIC (P. aeruginosa): 131 µM (≈ 62.6 µg/mL) | zone of inhibition at 15000 µg/mL (E. coli (ATCC: 3008); 24 h): 27 ± 0.5 mm | zone of inhibition at 15000 µg/mL ([2]; 24 h): 30 ± 0.5 mm | zone of inhibition at 15000 µg/mL ([3]; 24 h): 25 ± 0.5 mm

Nc1ccc(S(=O)(=O)Nc2ncccn2)cc1 [Sulfadiazine, reference compound]
MIC (K. pneumonia; [5]): 999 µM (≈ 250 µg/mL) | MIC (S. aureus): 2000 µM (≈ 500 µg/mL) | zone of inhibition at 15000 µg/mL (S. aureus (ATCC: 6538)): 21.5 ± 0.6 mm | MIC (S. mutans): 499 µM (≈ 125 µg/mL) | IC50 [1]: 28.5 µM | inhibition at 0.1 µg/mL [1]: 11% | inhibition at 1 µg/mL [1]: 26% | inhibition at 10 µg/mL [1]: 56% | inhibition at 100 µg/mL [1]: 75% | MIC (P. aeruginosa; [5]): 999 µM (≈ 250 µg/mL) | zone of inhibition at 15000 µg/mL (S. mutans (ATCC: 25175)): 22.2 ± 1.1 mm | zone of inhibition at 15000 µg/mL (E. coli (ATCC: 3008); [6]): 21.4 ± 0.4 mm | zone of inhibition at 15000 µg/mL [2, 6]: 20.6 ± 1.4 mm | zone of inhibition at 15000 µg/mL [3, 6]: 15.9 ± 0.9 mm
